Structures are written as SMILES.

As to `COc1ccc(-c2c(C(=O)CC(C)C)c(CSc3nccn3C)nc3cc(OC)c(OC)cc23)cc1OC`, the melting point was in the range of 152 to 153 °C.

`CC(C)N1C(=O)NC(c2cccnc2)c2cc3c(cc21)OCO3` (centres undefined) displayed a melting point of 172 to 174 °C. `COc1cccc(NC(=O)C(C)(C)C)c1C(C)=O` had a melting point of less than 48 °C. Regarding `CNc1nc(Nc2ccc(S(C)(=O)=O)cc2)ncc1[N+](=O)[O-]`, the melting point is 323 °C.

Regarding `CCC1=C(c2cccc(F)c2)C(=O)N(c2cccc(C(F)(F)F)c2)C1`, the melting point was 77.5 to 79 °C. `COc1cc2ncnc(NC3=CC(=O)C(N4CCCCC4)=CC3=O)c2cc1OC` returned a melting point of 226 to 227 °C. Take `COC(=O)C(C)(C)OCC#Cc1cc(C(F)(F)F)ccc1NS(=O)(=O)c1ccc2c(c1)OCCN2C`: the melting point was 98 to 100 °C.

As to `OC(CN1CCCCC1)c1cc(C(F)(F)F)nc2c(C(F)(F)F)cccc12` (centres undefined), the melting point turned out to be 130 °C. With `O=C(O)c1ccsc1C(F)F` the figure was 127 to 128 °C; with `CCc1cccc(CNC[C@@H](O)[C@H](Cc2cc(F)cc(F)c2)NC(=O)C2CCC(CS(C)(=O)=O)CC2)c1` (some centres undefined), 45 to 50 °C. In turn, `O=C(CI)CCc1ccccc1` registered a melting point of 44 to 45 °C. `CCOC(=O)c1ccc(Nc2cc(C)nc3cn[nH]c23)cc1`: the melting point was 247 to 250 °C. Turning to `CCN1C(=O)C(=C(C)O)SC1=S`, the melting point stood at 93 °C. In turn, `O=C(CC1CCCCC1)Nc1ccccc1` showed a melting point of 126 to 128 °C. With `CCCn1c(=O)n2cnnc2c2c1ncn2C`, the melting point turned out to be 218 °C.

`Cc1cc(-c2cc(C(F)(F)F)nc(-c3ccnc(-c4cccc(S(N)(=O)=O)c4)c3)n2)ccc1Cl`: the melting point was 234 °C. For the molecule `CN(C)C(=O)Nc1ccc(CN2OCC(C)(C)C2=O)c(Cl)c1`, the melting point fell in the range of 145 to 147 °C. With `CC(C)(C)c1ccc(-c2cc(Oc3ccc4[nH]ccc4c3)ncn2)cc1`, the melting point was in the range of 143 to 145 °C. As to `O=C(O)CN1CCC(OC(c2ccc(F)cc2)c2ccc(F)cc2)CC1`, the melting point is 126 to 128 °C. On to `CCCCCCCNC(=O)c1ccccc1CN1C(=O)C2(COc3cc4c(cc32)CCO4)c2ccccc21` (centres undefined), for which the melting point was in the range of 196 to 198 °C. For the molecule `COc1ccc(NC(=O)C2=C(O)c3ccccc3S(=O)(=O)N2C)ccc1=O`, the melting point lay within 215 to 218 °C.

The molecule `CCNC(=O)N1CCN(c2ccccc2C(C)(C)C)CC1` gave a melting point of 196 to 198 °C. `CCCCCCCCCCCCCCCCCCOc1ccc(C(=O)O)c(OCCCOc2ccc(OCc3ccccc3)cc2)c1` displayed a melting point of 102 to 104 °C.

`O=C(O)c1cccc(-c2ccc3c(c2)N(c2cc(Cl)ccc2Cl)CC3)c1` returned a melting point of 219 to 220 °C. `CCCN([C@H]1COc2c(F)ccc(C(N)=O)c2C1)C(C)(C)C` registered a melting point of 70 to 75 °C. The molecule `O=C(O)C(=O)Nc1ccc2c(=O)c3c(oc2c1)C(=Cc1ccc2c(c1)OCO2)CC3` gave a melting point of 300 to 305 °C. In turn, `COc1cccc(N(CCN2CCC(C(=O)c3ccc(F)cc3)CC2)C(=O)c2cccc(N)c2)c1` registered a melting point of 141 to 142 °C.

In turn, `COC(=O)CCSCCNC(=O)/C=C/C=C/c1ccccc1` registered a melting point of 58 to 60 °C. `CN(C)CCCC1(C)CCc2cccc(O)c2O1` (centres undefined) registered a melting point of 127 to 133 °C.

In turn, `CCCCN(Cc1ccc(-c2ccccc2-c2nc(=O)o[nH]2)cc1)c1ncccc1C(=O)OCC` registered a melting point of 146 to 147 °C. `CC[C@@H](c1ccccc1)N(Cc1ccc(C(=O)O)cc1)S(=O)(=O)c1ccc(C(=O)O)cc1` registered a melting point of 102 to 104 °C. For the molecule `O=C1OC2(CCN(C(=O)Nc3cnc(-c4ccccc4)cn3)CC2)c2cc(F)ccc21`, the melting point was 222 to 224 °C. For `COC(=O)c1cccc(-c2nnc(-c3ccc(N4CCOCC4)cc3)o2)c1`, the melting point lay within 150 to 151 °C.

Molecule `COc1cc(Nc2nc3ccnc(-c4ccc(S(N)(=O)=O)cc4)c3o2)cc(OC)c1OC` gave a melting point of more than 280 °C.

For the origin of these results see a melting point compilation (Tetko et al.; mined from patent text by program, amines drawn as free bases though some values may be those of a salt).
